Experimental data as given in patent US20240270762A1, “PENICILLIN-BINDING PROTEIN INHIBITORS” (priority 2021, published 2024).
In brackets after ≈: the same amount, converted by molar mass.

Experiments:
N. gonorrhoeae WHO X = assay: Liquid broth MIC in Fastidious broth; details: Neisseria gonorrhoeae, read-out: Minimum Inhibitory Concentration (MIC), N. gonorrhoeae WHO X
N. gonorrhoeae WHO M = assay: Liquid broth MIC in Fastidious broth; details: Neisseria gonorrhoeae, read-out: Minimum Inhibitory Concentration (MIC), N. gonorrhoeae WHO M
K. pneumoniae SI-117 = assay: microbe, parasite or virus in culture; assay type: cell-based; details: Klebsiella pneumoniae, SI117, read-out: MIC K. pneumoniae SI-117
E. coli AG100A = assay: Broth microdilution MIC in CAMHB; assay type: cell-based; details: Escherichia coli, read-out: MIC E. coli AG100A
[1] = system: N. gonorrhoeae ATCC 49226; assay: Liquid broth MIC in Fastidious broth; details: Neisseria gonorrhoeae, ATCC49226, read-out: Minimum Inhibitory Concentration (MIC), N. gonorrhoeae ATCC 49226
[2] = system: P. aeruginosa (ΔmexAB-oprM); assay: Broth microdilution MIC in CAMHB; assay type: cell-based; details: Pseudomonas aeruginosa; read-out: MIC P. aeruginosa ΔmexAB-oprM
K. pneumoniae 848844 = assay: microbe, parasite or virus in culture; assay type: cell-based; details: Klebsiella pneumoniae, 848844, read-out: MIC K. pneumoniae 848844
N. gonorrhoeae WHO Q = assay: Liquid broth MIC in Fastidious broth; details: Neisseria gonorrhoeae, read-out: Minimum Inhibitory Concentration (MIC), N. gonorrhoeae WHO Q
E. coli 901C = assay: microbe, parasite or virus in culture; assay type: cell-based; details: Escherichia coli, read-out: MIC E. coli 901C
N. gonorrhoeae FA1090 = assay: Liquid broth MIC in Fastidious broth; details: Neisseria gonorrhoeae, FA1090, read-out: Minimum Inhibitory Concentration (MIC), N. gonorrhoeae FA 1090
[3] = biological target: T1, PBP3 from Pseudomonas aeruginosa (PAO1) (Pseudomonas aeruginosa, UniProt G3XD46); assay: Bocillin-FL fluorescence polarization competition binding, P. aeruginosa PBP3; details: Binding affinity to P. aeruginosa PBP3; fluorescence polarization competition binding assay using Bocillin-FL; read-out: P. aeruginosa PBP3 Potency
T1 construct: made in house
T1 sequence (G3XD46 whole entry): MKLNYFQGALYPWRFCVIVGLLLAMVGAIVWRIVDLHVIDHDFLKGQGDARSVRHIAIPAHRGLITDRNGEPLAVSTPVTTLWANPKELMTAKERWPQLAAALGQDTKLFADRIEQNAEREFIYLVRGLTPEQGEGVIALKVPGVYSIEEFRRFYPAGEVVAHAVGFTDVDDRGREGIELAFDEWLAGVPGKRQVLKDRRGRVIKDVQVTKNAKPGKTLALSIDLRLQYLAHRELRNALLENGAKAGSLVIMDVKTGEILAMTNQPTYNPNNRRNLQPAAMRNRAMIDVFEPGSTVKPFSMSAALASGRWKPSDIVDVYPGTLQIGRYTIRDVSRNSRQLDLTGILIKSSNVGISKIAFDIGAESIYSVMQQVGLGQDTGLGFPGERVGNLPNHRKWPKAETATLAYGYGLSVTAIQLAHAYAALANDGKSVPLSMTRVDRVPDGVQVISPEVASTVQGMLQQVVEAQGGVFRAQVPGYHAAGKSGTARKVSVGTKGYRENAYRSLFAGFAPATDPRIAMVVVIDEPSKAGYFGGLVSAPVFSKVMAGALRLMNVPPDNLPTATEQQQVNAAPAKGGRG
How it was run: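 Purified PBP was preincubated with inhibitor (E. coli PBP3 1.5 μM, 30 min; P. aeruginosa PBP3 0.75 μM, A. baumannii PBP3 0.2 μM and PBP1a 1 μM, 15 min), then Bocillin-FL (0.1 μM; 0.05 μM for PBP1a) added and FP read up to 60 min. EC50 = 50% loss of bound probe.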

N. gonorrhoeae WHO L = assay: Liquid broth MIC in Fastidious broth; details: Neisseria gonorrhoeae, read-out: Minimum Inhibitory Concentration (MIC), N. gonorrhoeae WHO L
E. coli AG100 = assay: microbe, parasite or virus in culture; assay type: cell-based; details: Escherichia coli, AG100, read-out: MIC E. coli AG100
N. gonorrhoeae WHO Z = assay: Liquid broth MIC in Fastidious broth; details: Neisseria gonorrhoeae, read-out: Minimum Inhibitory Concentration (MIC), N. gonorrhoeae WHO Z
A. baumannii ATCC 19606 = assay: microbe, parasite or virus in culture; assay type: cell-based; details: Acinetobacter baumannii, ATCC19606, read-out: MIC, A. baumannii ATCC 19606
P. aeruginosa ATCC 35151 = assay: microbe, parasite or virus in culture; assay type: cell-based; details: Pseudomonas aeruginosa, ATCC35151, read-out: MIC P. aeruginosa ATCC 35151

Row | Compound | MIC (N. gonorrhoeae WHO X) [µg/mL] | MIC (N. gonorrhoeae WHO M) [µg/mL] | MIC (K. pneumoniae SI-117) [µg/mL] | MIC (E. coli AG100A) [µg/mL] | MIC [1] [µg/mL] | MIC [2] [µg/mL] | MIC (K. pneumoniae 848844) [µg/mL] | MIC (N. gonorrhoeae WHO Q) [µg/mL] | MIC (E. coli 901C) [µg/mL] | MIC (N. gonorrhoeae FA1090) [µg/mL] | IC50 [3] [µM] | MIC (N. gonorrhoeae WHO L) [µg/mL] | MIC (E. coli AG100) [µg/mL] | MIC (N. gonorrhoeae WHO Z) [µg/mL] | MIC (A. baumannii ATCC 19606) [µg/mL] | MIC (P. aeruginosa ATCC 35151) [µg/mL]
1 | Nc1ncc(C(=O)N[C@@H](C(=O)N[C@H]2Cc3cccc(C(=O)O)c3OB2O)c2ccc(P(=O)(O)O)cc2)s1 (racemic) [Example 50, (R)-3-((S)-2-(2-aminothiazole-5-carboxamido)-2-(4-phosphonophenyl)acetamido)-2-hydroxy-3,4-dihydro-2H-benzo[e][1,2]oxaborinine-8-carboxylic acid and (R)-3-((R)-2-(2-aminothiazole-5-carboxamido)-2-(4-phosphonophenyl)acetamido)-2-hydroxy-3,4-dihydro-2H-benzo[e][1,2]oxaborinine-8-carboxylic acid] | 16 to 32 (≈ 29.3 to 58.6 µM) | 1 to 2 (≈ 1.83 to 3.66 µM) | > 128 | > 128 | 4 to 8 (≈ 7.32 to 14.6 µM) | 32 to 64 (≈ 58.6 to 117 µM) | > 128 | 16 to 32 (≈ 29.3 to 58.6 µM) | 8 to 16 (≈ 14.6 to 29.3 µM) | 1 to 2 (≈ 1.83 to 3.66 µM) | < 10 | 16 to 32 (≈ 29.3 to 58.6 µM) | > 128 | 16 to 32 (≈ 29.3 to 58.6 µM) | > 128 | 2 to 4 (≈ 3.66 to 7.32 µM)
2 | Nc1nc(C(=O)N[C@@H](C(=O)N[C@H]2Cc3cccc(C(=O)O)c3OB2O)c2ccc(P(=O)(O)O)cc2)cs1 (racemic) [Example 51, (R)-3-((S)-2-(2-aminothiazole-4-carboxamido)-2-(4-phosphonophenyl)acetamido)-2-hydroxy-3,4-dihydro-2H-benzo[e][1,2]oxaborinine-8-carboxylic acid and (R)-3-((R)-2-(2-aminothiazole-4-carboxamido)-2-(4-phosphonophenyl)acetamido)-2-hydroxy-3,4-dihydro-2H-benzo[e][1,2]oxaborinine-8-carboxylic acid] | 4 to 8 (≈ 7.32 to 14.6 µM) | < 1 | > 128 | 32 to 64 (≈ 58.6 to 117 µM) | < 1 | 32 to 64 (≈ 58.6 to 117 µM) | > 128 | 1 to 2 (≈ 1.83 to 3.66 µM) | < 1 | < 1 | < 10 | 4 to 8 (≈ 7.32 to 14.6 µM) | > 128 | 1 to 2 (≈ 1.83 to 3.66 µM) | > 128 | 2 to 4 (≈ 3.66 to 7.32 µM)
3 | CCN1CCN(C(=O)N[C@@H](C(=O)N[C@H]2Cc3cccc(C(=O)O)c3OB2O)c2ccc(P(=O)(O)O)c(F)c2)C(=O)C1=O (single isomer, unassigned) [Example 7] | < 1 | < 1 | > 128 | 8 to 16 (≈ 13.2 to 26.4 µM) | < 1 | 8 to 16 (≈ 13.2 to 26.4 µM) | > 128 | < 1 | < 1 | < 1 | – | < 1 | 8 to 16 (≈ 13.2 to 26.4 µM) | < 1 | 8 to 16 (≈ 13.2 to 26.4 µM) | < 1
4 | O=C(O)c1c(F)ccc2c1OB(O)[C@@H](NC(=O)C(NC(=O)N1CCN(Cc3ccc(O)c(O)c3Cl)C(=O)C1=O)c1ccc(P(=O)(O)O)cc1)C2 (stereo partly drawn) [Example 8, (3R)-3-(2-(4-(2-chloro-3,4-dihydroxybenzyl)-2,3-dioxopiperazine-1-carboxamido)-2-(4-phosphonophenyl)acetamido)-7-fluoro-2-hydroxy-3,4-dihydro-2H-benzo[e][1,2]oxaborinine-8-carboxylic acid] | 4 to 8 (≈ 5.44 to 10.9 µM) | < 1 | 8 to 16 (≈ 10.9 to 21.8 µM) | < 1 | < 1 | < 1 | > 128 | < 1 | < 1 | < 1 | < 10 | 4 to 8 (≈ 5.44 to 10.9 µM) | – | < 1 | < 1 | < 1
5 | O=C(O)c1c(F)ccc2c1OB(O)[C@@H](NC(=O)C(NC(=O)N1CCN(Cc3ccc(O)c(O)c3Cl)C(=O)C1=O)c1ccc(P(=O)(O)O)c(F)c1)C2 (stereo partly drawn) [Example 23, (3R)-3-(2-(4-(2-chloro-3,4-dihydroxybenzyl)-2,3-dioxopiperazine-1-carboxamido)-2-(3-fluoro-4-phosphonophenyl)acetamido)-7-fluoro-2-hydroxy-3,4-dihydro-2H-benzo[e][1,2]oxaborinine-8-carboxylic acid] | 1 to 2 (≈ 1.33 to 2.66 µM) | < 1 | – | – | < 1 | – | – | < 1 | – | < 1 | < 10 | 4 to 8 (≈ 5.31 to 10.6 µM) | – | < 1 | – | –
6 | O=C(O)c1cccc2c1OB(O)[C@@H](NC(=O)C(NC(=O)N1CCN(Cc3ccc(O)c(O)c3Cl)C(=O)C1=O)c1ccc(P(=O)(O)O)cc1)C2 (stereo partly drawn) [Example 24, (3R)-3-(2-(4-(2-chloro-3,4-dihydroxybenzyl)-2,3-dioxopiperazine-1-carboxamido)-2-(4-phosphonophenyl)acetamido)-2-hydroxy-3,4-dihydro-2H-benzo[e][1,2]oxaborinine-8-carboxylic acid] | 16 to 32 (≈ 22.3 to 44.6 µM) | < 1 | – | – | < 1 | – | – | 1 to 2 (≈ 1.4 to 2.79 µM) | – | < 1 | < 10 | 4 to 8 (≈ 5.58 to 11.2 µM) | – | 1 to 2 (≈ 1.4 to 2.79 µM) | – | –
7 | O=C(O)c1c(F)ccc2c1OB(O)[C@@H](NC(=O)C(NC(=O)N1CCN(Cc3cc(F)c(O)c(O)c3Cl)C(=O)C1=O)c1ccc(P(=O)(O)O)cc1)C2 (stereo partly drawn) [Example 45, (3R)-3-(2-(4-(2-chloro-5-fluoro-3,4-dihydroxybenzyl)-2,3-dioxopiperazine-1-carboxamido)-2-(4-phosphonophenyl)acetamido)-7-fluoro-2-hydroxy-3,4-dihydro-2H-benzo[e][1,2]oxaborinine-8-carboxylic acid] | 4 to 8 (≈ 5.31 to 10.6 µM) | < 1 | – | – | < 1 | – | – | 1 to 2 (≈ 1.33 to 2.66 µM) | – | < 1 | < 10 | 4 to 8 (≈ 5.31 to 10.6 µM) | – | 1 to 2 (≈ 1.33 to 2.66 µM) | – | –
8 | O=C(O)c1c(F)ccc2c1OB(O)[C@@H](NC(=O)C(NC(=O)N1CCN(Cc3ccc(O)c(O)c3Cl)C1=O)c1ccc(P(=O)(O)O)cc1)C2 (stereo partly drawn) [Example 46, (3R)-3-(2-(3-(2-chloro-3,4-dihydroxybenzyl)-2-oxoimidazolidine-1-carboxamido)-2-(4-phosphonophenyl)acetamido)-7-fluoro-2-hydroxy-3,4-dihydro-2H-benzo[e][1,2]oxaborinine-8-carboxylic acid] | 1 to 2 (≈ 1.41 to 2.83 µM) | < 1 | – | – | < 1 | – | – | < 1 | – | < 1 | < 10 | 4 to 8 (≈ 5.66 to 11.3 µM) | – | < 1 | – | –
9 | O=C(N[C@@H](C(=O)N[C@H]1Cc2cccc(C(=O)O)c2OB1O)c1ccc(P(=O)(O)O)cc1)c1ccc(O)c(O)c1Cl [Example 49, (R)-3-((R)-2-(2-chloro-3,4-dihydroxybenzamido)-2-(4-phosphonophenyl)acetamido)-2-hydroxy-3,4-dihydro-2H-benzo[e][1,2]oxaborinine-8-carboxylic acid] | – | – | – | – | – | – | – | – | – | – | > 250 | – | – | – | – | –
10 | O=C(NCCN1CCN(C(=O)NC(C(=O)N[C@H]2Cc3ccc(F)c(C(=O)O)c3OB2O)c2ccc(P(=O)(O)O)cc2)C(=O)C1=O)c1ccc(O)c(O)c1Cl (stereo partly drawn) [Example 120, (3R)-3-(2-(4-(2-(2-chloro-3,4-dihydroxybenzamido)ethyl)-2,3-dioxopiperazine-1-carboxamido)-2-(4-phosphonophenyl)acetamido)-7-fluoro-2-hydroxy-3,4-dihydro-2H-benzo[e][1,2]oxaborinine-8-carboxylic acid] | – | – | – | – | – | – | – | – | – | – | < 10 | – | – | – | – | –
